Results reported in paper PMC10943645 (Current Research in Toxicology, 2024).
Each block holds one molecule with its values, some of them ahead of it.

Assays:
[1] = test system: DNA; experiment: Identification of B; assay type: in vivo, PIRC rats; details: colon and liver tissues
[2] = test system: GST; experiment: Western blot of GST protein in colon; assay type: in vivo, PIRC rats; details: 25 µg B(a)P/kg bw + RD, among all the groups
[3] = test system: malondialdehyde (MDA); experiment: Lipid peroxidation; assay type: in vivo, PIRC rats; details: among the treatment groups, except in the case of 100 µg/kg
[4] = test system: SULT1A1; experiment: Western blot of SULT1A1 protein in liver; assay type: in vivo, PIRC rats
[5] = test system: Caco-2 cells; details: Western diet; ref Faria et al. (2020); cited from earlier work
[6] = test system: malondialdehyde (MDA); experiment: Lipid peroxidation; assay type: in vivo, PIRC rats; details: B(a)P + WD
[7] = test system: SULT1A1; experiment: Western blot of SULT1A1 protein in colon; assay type: in vivo, PIRC rats
[8] = test system: GST; experiment: Western blot of GST protein in liver; assay type: in vivo, PIRC rats
[9] = Tissue disposition of B; assay type: in vivo, PIRC rats; details: for proportion of reactive metabolite among B(a)P metabolite concentrations: colon sample, 50 µg B(a)P/kg bw (Fig. 5D)

Compound: Oc1ccc2ccc3c4ccccc4cc4ccc1c2c43 [3-OH-B(a)P]
contribution of B(a)P metabolite to DNA adduct formation [1]: not found to contribute to adduct formation

Compound: Oc1ccc2cc3ccc4cccc5ccc(c2c1)c3c45 [9-OH–B(a)P]
contribution of B(a)P metabolite to DNA adduct formation [1]: not found to contribute to adduct formation

Compound: c1ccc2c(c1)cc1ccc3cccc4ccc2c1c34 [B(a)P, Benzo(a)pyrene]
GST protein expression in colon [2]: largest increase | oxidative stress (MDA) in serum [3]: no difference | SULT1A1 protein expression in liver, WD compared to RD ([4]; 25 µg B(a)P/kg bw + WD vs RD): increased expression | SULT1A1 protein expression in liver, RD or WD ([4]; 50 and 100 µg B(a)P/kg bw + RD or WD): no difference | bioaccessibility of B(a)P with WD [5]: higher bioaccessibility | MDA production in colon [6]: increased | SULT1A1 protein expression in colon ([7]; 25 µg B(a)P/kg bw + RD and WD): negligible | SULT1A1 protein expression in colon ([7]; 50 µg B(a)P/kg bw, both diets): increased | SULT1A1 protein expression in colon, WD compared to RD ([7]; 100 µg B(a)P/kg bw + WD vs RD counterpart): significantly increased | GST protein expression in liver, RD or WD ([8]; 100 µg B(a)P/kg bw, RD or WD): Very little difference | GST protein expression in liver, WD compared to counterparts ([8]; 25 and 50 µg B(a)P/kg bw + WD): significant increase | B(a)P metabolite concentrations versus dose ([9]; plasma, liver, colon, 25, 50, 100 µg B(a)P/kg bw): dose-dependent

proportion of reactive metabolite among B(a)P metabolite concentrations [9]: high
Compound: O=C1C=Cc2ccc3c4c(ccc1c24)C(=O)c1ccccc1-3 [B(a)P-3,6-dione]
contribution of B(a)P metabolite to DNA adduct formation [1]: not found to contribute to adduct formation

proportion of reactive metabolite among B(a)P metabolite concentrations [9]: high
Compound: O=c1c2ccc3cccc4c(=O)cc(c5ccccc15)-c2c34 [B(a)P-6,12-dione]
contribution of B(a)P metabolite to DNA adduct formation [1]: not found to contribute to adduct formation

Compound: O[C@@H]1[C@@H]2O[C@@H]2c2c(cc3ccc4cccc5ccc2c3c45)[C@H]1O [BPDE, 7β,8α-dihydroxy-9α,10α-epoxy-7,8,9,10-tetrahydrobenzo[a]pyrene]
contribution of B(a)P metabolite to DNA adduct formation [1]: major adducts
